# Laboratory results from patent publication EP2945947B1, “INHIBITING THE TRANSIENT RECEPTOR POTENTIAL A1 ION CHANNEL” (Merck Sharp & Dohme Corp., priority 2013, dated 2014).
# Structures can show the parent of a compound that is named as a salt. Where two headings read alike, the source gives them in different places.
# What was measured:
# rat = experiment: Rodent cold plate pain model, Complete Freund's Adjuvant (Example 4); format: in vivo; conditions: cold plate 1 °C, Figures 1 and 2
# Method: CFA-induced pain test method reported in del Camino et al., J. Neurosci., 30 (45):15165-15174. Briefly, the right hind paw is sensitized to cold temperature (allodynic) by administering 0.1 mL of Complete Freund's Adjuvant (CFA) to that paw. Two to four days later, the time it takes for the animal to lift its CFA-injected paw from the cold surface is recorded compared to its un-injected normal left hind paw. […] To avoid tissue damage, the maximum cut-off time is five minutes. Animals that are allodynic (average PWL to the first three pain behaviors <150 seconds for the CFA-injected hind paw: ∼ ≥50% difference between the normal and CFA-injected paw) are included in the study and subsequently randomized across treatment groups. The following day, the animals in some groups are dosed with a test compound under blinded conditions. Following the one to two hour pre-treatment time, the post-dose PWL readings are taken again. The efficacy of the drug treatment is assessed by comparing the PWL in the drug treatment animals to those that receive the vehicle.
# human TRPA1 = human TRPA1 (Homo sapiens, UniProt O75762); experiment: Inhibition of the TRPA1 ion channel, whole cell patch configuration (Example 1); format: cell-based; conditions: current activation 10 µM AITC, read-out: Human TRPA1 IC50 Inward Current
# Method: Compounds of Formula (Ia) inhibit the TRPA1 channel, as measured using the method of Example 1. […] Data for TRPA1 inhibition and for TRPA1 selectivity was obtained by this method for the indicated compounds of Formula (Ia), with the relevant data included in Tables 1a - f below. All currents were recorded in whole-cell configuration using EPC-9 and EPC-10 amplifiers and Patchmaster software (HEKA). […] The standard pipette solution consisted of 140mM CsAsp, 10 mM EGTA, 10 mM HEPES, 2.27 mM MgCl2, 1.91 mM CaCl2, 4 mM MgATP, and 0.1-0.3 mM Na2GTP, with pH adjusted to 7.2 with CsOH. In addition, a solution containing 145 mM CsCl, 10 mM HEPES, 10 mM EGTA and 1 mM MgCl2 (pH 7.2 adjusted with CsOH) can be used. The standard bath solution contained 150 mM NaCl, 10 mM HEPES, 10 mM glucose, 4.5 mM KCl, 1 mM EGTA, 3 mM MgCl2, with pH adjusted to 7.4 with NaOH. In some instances, 2 mM CaCl2 was added in place of EGTA and the concentration of MgCl2 was reduced to 1 mM.
# Data were collected either by continuous recordings at -60 mV or by applying voltage ramps from a holding potential of 0 mV every 4 s. Continuous recordings were collected at 400 Hz and digitally filtered off-line at 10 Hz for presentation. Voltage ramps were applied from - 100 mV to 100 mV over the course of 400 ms, and data were collected at 10 kHz and filtered at 2.9 kHz. Inward and outward currents were analyzed from the ramps at -80 and 80 mV, respectively. Liquid junction potential correction was not used.
# Solutions were switched using a gravity-fed continuous focal perfusion system. To achieve rapid temperature changes, two temperature control, and perfusion systems were employed simultaneously. For temperatures ≥ 22°C, a Warner Instruments bipolar temperature controller (TC-344B) and inline heater (SHM-8) were used. […] Temperatures were confirmed using a thermistor (Warner Instruments, TA-29), with temperatures at the recorded cell estimated to be within +/- 2°C of those reported.
# The antagonist effects of compounds of Formula (Ia) against human TRPA1 ("hTRPA1") and for some compounds rat TRPA1 ("rTRPA1") in a whole cell patch configuration were evaluated using the in vitro assay described above. The current activation tested was 10 µM AITC, and the tested concentrations ranged from 5 µM and 500 nM. Table 1a (Comparative Compounds)
# rats [1] = experiment: Single-dose toxicity studies in rats (Example 7); format: in vivo
# Method: (§1) In one single dose PK study conducted in fed and fasted rats, oral administration of Comparative Compound 2 in 30% HPCD produced adverse clinical signs in some of the fasted rats only.
# (§2) Intravenous administration of Comparative Compound 2 (a nanosuspension formulation in 0.5% polysorbate 80 and 0.1% Poloxamer 188 and 0.8%NaCl) at dose levels of 3, 10, and 30 mg/kg as a single slow bolus (∼2 min) to male SD rat was well-tolerated.
# (§3) Intravenous administration of Compound 1-B as a single, 30-minute infusion to SD female rats was well-tolerated at dose levels up to 300 mg/kg. No adverse clinical signs were observed concerning Compound 1-B.
# (§4) Intravenous administration of Compound 5-T as a single, 30-minute infusion to SD female rats was well-tolerated at dose levels up to 300 mg/kg. No adverse clinical signs were observed concerning Compound 5-T.
# (§5) A single oral dose administration of Compound 5-T in a Spray Dried Dispersion (SDD) formulation (a suspension of SDD powder) at nominal doses of 3, 30, 100, and 300 mg/kg to fed female Sprague Dawley rats were well-tolerated. No adverse clinical signs were observed concerning Compound 5-T.
# [2] = Single-dose toxicity studies in rats (Example 7); format: in vivo; conditions: rat, in vivo; single IP administration 100 mg/Kg, rats; read-out: plasma Cmax
# Method: as §1, §2, §3, §4, §5
# [3] = test system: Female Sprague Dawley rats; experiment: Rodent acute tolerability test with liver function tests (Example 5); format: in vivo, rat; set-up: key to Alterations in LFT: (↔) indicates blood levels of markers for potential liver damage within normal range; (↑) indicates blood levels of markers for potential liver damage elevated above normal range; conditions: for Alterations in LFT / LFT: % upper normal range ALT serum levels / LFT: % upper normal range AST serum levels: single IV bolus dose 100 mg/kg, about 24 hours post dose
# Method: Compounds of Formula (Ia) were assessed for acute tolerability in a rodent model at dose levels ranging from 100 - 200 mg/kg based upon the minimum efficacious dose of each compound. Female Sprague Dawley rats were administered up to a 10 mL/kg dose volume of each compound in 0.9% saline at appropriate concentrations as an intravenous bolus via the lateral tail vein. The animals were observed immediately post dose and for up to twenty four hours post dose and clinical observations were recorded. Additionally, approximately twenty four hours post dose animals were euthanized and blood taken for serum chemistry analysis with a focus on liver function tests (LFTs). The maximum tolerated single dose and LFT results are summarized in Table 3, where (↔) indicates blood levels of markers for potential liver damage within normal range and (↑) indicates blood levels of markers for potential liver damage elevated above normal range. Referring to the data in Table 3, LFT blood levels of markers for potential liver damage remained within normal range for the compounds of Formula (Ia), while LFTs were elevated for Comparator Compounds including 5-10 fold elevation above normal for ALT and AST blood levels observed upon administration of Comparative Compound 1. […]
# [4] = Aqueous solubility in buffered solutions, HPLC (Example 2); format: physicochemical; conditions: kinetic from dmso stock, ambient temperature
# rats [5] = experiment: Rodent formalin pain model (Example 3); format: in vivo; conditions: rat; for Minimal Efficacious Dose of Compound in Formalin Model: IV, statistically significant difference vs vehicle at 0 - 2 min (p≤0.05); for Duration of Pain Behavior: first two minutes after formalin, vehicle 88.6
# Method: Compounds of Formula (Ia) are active in rodent models of pain induced by direct activation of the TRPA1 channel with intraplantar injection of the TRPA1 agonist formalin. Compounds of Formula (Ia) were tested in the formalin-induced pain test reported by Abbott et. al. Pain. 1995 Jan;60(1):91-102. Dubuisson et al. describe a method for assessing pain and analgesia in rats. Briefly, dilute formalin (50 µL of 3 % formalin) is injected into the plantar surface of the hind paw. […] The individual responsible for counting the pain behaviors in a particular study is blinded to the treatment groups.
# Table 2 is a data table showing the results from testing compounds of Formula (Ia) in the rodent formalin-induced pain model described in […]. Rats were treated with the compounds of Formula (Ia) at various doses (0.1, 0.3, 1, 1.2, 3, 4, 10, or 30 mg/Kg IV) or with a control composition containing the vehicle (i.e., without a compound of Formula (Ia)). Pain behaviors (flinch, lift, lick, bite) were monitored following intraplantar formalin injection. Referring to Table 2, the minimum effective dose was derived from dose resulting in statistically significant difference in behavior at 0 - 2 min time period as compared with vehicle (p≤0.05).
# [6] = sodium bicarbonate buffer in water for injection/5% dextrose, pH 9.0, 50 mM sodium bicarbonate, read-out: pH 9.0 aqueous solubility
# [7] = sodium phosphate buffer in water for injection/5% dextrose, pH 7.4, 75 mM sodium phosphate, read-out: pH 7.4 aqueous solubility
# human TRPA1, sequence (O75762 whole entry): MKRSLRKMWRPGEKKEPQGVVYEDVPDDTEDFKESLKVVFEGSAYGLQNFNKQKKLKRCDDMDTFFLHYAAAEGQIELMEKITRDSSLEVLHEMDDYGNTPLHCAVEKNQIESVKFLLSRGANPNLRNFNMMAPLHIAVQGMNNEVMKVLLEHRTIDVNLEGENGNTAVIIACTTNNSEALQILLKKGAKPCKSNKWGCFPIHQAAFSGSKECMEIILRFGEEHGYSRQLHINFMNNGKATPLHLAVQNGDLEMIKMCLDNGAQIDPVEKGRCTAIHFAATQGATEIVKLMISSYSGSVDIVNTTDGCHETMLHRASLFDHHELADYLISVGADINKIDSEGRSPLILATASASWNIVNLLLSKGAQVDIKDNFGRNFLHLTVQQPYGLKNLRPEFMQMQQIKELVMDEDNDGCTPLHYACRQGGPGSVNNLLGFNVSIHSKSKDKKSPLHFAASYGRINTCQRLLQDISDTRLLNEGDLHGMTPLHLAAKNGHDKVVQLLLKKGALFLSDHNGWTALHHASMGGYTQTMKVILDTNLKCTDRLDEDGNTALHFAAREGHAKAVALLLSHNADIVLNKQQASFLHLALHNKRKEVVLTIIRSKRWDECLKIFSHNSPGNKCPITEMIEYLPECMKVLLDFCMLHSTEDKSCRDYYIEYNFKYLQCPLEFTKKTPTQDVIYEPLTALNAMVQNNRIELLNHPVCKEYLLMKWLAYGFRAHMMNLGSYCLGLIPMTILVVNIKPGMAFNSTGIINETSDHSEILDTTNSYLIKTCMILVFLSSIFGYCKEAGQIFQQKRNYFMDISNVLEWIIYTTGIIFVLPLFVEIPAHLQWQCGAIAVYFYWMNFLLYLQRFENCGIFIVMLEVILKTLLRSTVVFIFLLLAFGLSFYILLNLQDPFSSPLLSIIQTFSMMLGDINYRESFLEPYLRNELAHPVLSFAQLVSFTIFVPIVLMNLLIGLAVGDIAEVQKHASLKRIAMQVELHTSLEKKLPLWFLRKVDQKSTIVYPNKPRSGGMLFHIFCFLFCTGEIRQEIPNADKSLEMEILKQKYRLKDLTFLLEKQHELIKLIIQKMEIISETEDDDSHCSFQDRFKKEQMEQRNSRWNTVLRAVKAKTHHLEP
Structure (SMILES),"Paw Withdrawal Latency, CFA cold allodynia (rat)",IC50 (human TRPA1),Minimal Efficacious Dose of Compound in Formalin Model (rats [5]),Duration of Pain Behavior (rats [5]; dose 0.3 mg/kg IV),Alterations in LFT [3],LFT: % upper normal range ALT serum levels [3],LFT: % upper normal range AST serum levels [3],"solubility kinetic at 24 h [4, 6]","solubility kinetic at 24 h [4, 7]",further results
"C[C@H]1CCCN1c1ncc(-c2cccc(NC(=O)Cn3cnc4c3c(=O)n(C)c(=O)n4C)n2)cn1 [Comparator 2, reference compound]",significantly less potency,76 to 100 nM,,,,,,,,"tolerability (rats [1]; IV single slow bolus, nanosuspension formulation, 3, 10, and 30 mg/kg, male SD rat): well-tolerated; clinical observations (rats [1]; IV single slow bolus, nanosuspension formulation, all three dose levels (3, 10, 30 mg/kg), ~1hr postdose, male SD rat): Mild flushing/mild swelling of the ears; clinical signs (rats [1]; single IP administration 100 mg/Kg, rats, approximately 30 minutes to 4 hours): mild to moderate lethargy; adverse clinical signs (rats [1]; single oral dose in 30% HPCD, 50 mg/kg and 100 mg/kg, fasted female rats only (two of three and one of three)): labored breathing and red urine; Cmax [2]: ~110 µg/mL; serum biomarkers of hepatotoxicity ([3]; animal studies of Example 5): did not elevate the serum biomarkers of hepatotoxicity; solubility kinetic at 24 h ([4]; buffered solution (sodium acetate buffer), pH 4.0, 50mM sodium acetate in 5% dextrose, read-out: pH 4.0 aqueous solubility): 9 µg/mL; solubility kinetic at 24 h ([4]; buffered solution (sodium bicarbonate buffer), pH 9.0, 50 mM sodium bicarbonate, read-out: pH 9.0 aqueous solubility): 10 µg/mL; solubility kinetic at 24 h ([4]; buffered solution (sodium phosphate buffer), pH 7.4, 75 mM sodium phosphate, read-out: pH 7.4 aqueous solubility): 7 µg/mL"
"CC(C(=O)N(COP(=O)(O)O)c1cccc(-c2cnc(N3CCCC3C(F)(F)F)nc2)n1)n1cnc2c1c(=O)n(C)c(=O)n2C (stereo not drawn) [Compound 1-A, phosphate, sodium salt]",reversal of CFA Cold Allodynia,> 100 nM,1.2 mg/kg,77.7 s,↔,<100%/<100%,<100%/<100%,> 1000 µg/mL,> 1000 µg/mL,Duration of Pain Behavior (rats [5]; dose 1.2 mg/kg IV): 43.3 s; Duration of Pain Behavior (rats [5]; dose 4 mg/kg IV): 19.8 s
"C[C@@H](C(=O)N(COP(=O)(O)O)c1cncc(-c2cnc(N3CCC[C@H]3C(F)(F)F)nc2)n1)n1cnc2c1c(=O)n(C)c(=O)n2C [Compound 5-S, ((S)-2-(1,3-dimethyl-2,6-dioxo-1,2,3,6-tetrahydro-7H-purin-7-yl)-N-(6-(2-((S)-2-(trifluoromethyl)pyrrolidin-1-yl)pyrimidin-5-yl)pyrazin-2-yl)propanamido)methyl dihydrogen phosphate]",,> 100 nM,3 mg/kg,69.8 s,↔,<100%/<100%,<100%/<100%,> 1000 µg/mL,> 1000 µg/mL,Duration of Pain Behavior (rats [5]; dose 1 mg/kg IV): 52.3 s; Duration of Pain Behavior (rats [5]; dose 3 mg/kg IV): 8.4 s; Duration of Pain Behavior (rats [5]; dose 10 mg/kg IV): 0 s
